These results are taken from patent publication US4399274A, “Isolation of non-ionic lipophilic materials on macroreticular polymeric absorbents” (priority 1981, dated 1983).

The series in a line: Partition of avermectins between aqueous acetone and Duolite ES-863 resin (HPLC of supernatant before and after equilibration).
Where [1] appears, read: 21.4% acetone (vol), 4 ml supernatant, 1 g ES-863 resin, equilibrated for an hour.
Setting [2] is: 23.1% acetone (vol), 4 ml supernatant, 1 g ES-863 resin, equilibrated for an hour.
[3] abbreviates: 25.0% acetone (vol), 4 ml supernatant, 1 g ES-863 resin, equilibrated for an hour.
[4] abbreviates: 27.3% acetone (vol), 4 ml supernatant, 1 g ES-863 resin, equilibrated for an hour.
Setting [5] is: 37.5% acetone (vol), 4 ml supernatant, 1 g ES-863 resin, equilibrated for an hour.
Setting [6] is: 42.9% acetone (vol), 4 ml supernatant, 1 g ES-863 resin, equilibrated for an hour.
Where [7] appears, read: 50.0% acetone (vol), 4 ml supernatant, 1 g ES-863 resin, equilibrated for an hour.
Where [8] appears, read: 60.0% acetone (vol), 4 ml supernatant, 1 g ES-863 resin, equilibrated for an hour.
Where [9] appears, read: 68.0% acetone, ES-863 resin, similar procedures.
The mark [10] stands for this setting: 73.3% acetone, ES-863 resin, similar procedures.
[11] abbreviates: 77.1% acetone, ES-863 resin, similar procedures.
Where [12] appears, read: 80.0% acetone, ES-863 resin, similar procedures.
Where [13] appears, read: 82.2% acetone, ES-863 resin, similar procedures.

The structures appear in SMILES notation. A value given as a limit tells only on which side of the number the result lay.

Experimental: After standing overnight they were centrifuged and 4 ml of each supernatant was transferred to tubes containing 1 g each of purified ES-863 resin. An aliquot was also taken for HPLC assay.
The samples containing the resin were equilibrated for an hour, then centrifuged. The supernatants were assayed by HPLC. A comparison of the assays before and after equilibration represent the partition between the solvent and the adsorbent.

`CCC(C)C1OC2(C=CC1C)CC1CC(CC=C(C)C(OC3CC(OC)C(OC4CC(OC)C(O)C(C)O4)C(C)O3)C(C)C=CC=C3COC4C(OC)C(C)=CC(C(=O)O1)C34O)O2` (stereo not drawn) [A1a]: the “% Remaining in Solution” value stood at 4.40% under setting [1]; 6.75% under setting [2]; 7.09% under setting [3]; 8.42% under setting [4]; 3.60% under setting [5]; 4.39% under setting [6]. The “% Remaining in Solution” value amounted to 3.03% under setting [7]; 2.10% under setting [8]; 5.68% under setting [9]; 19.7% under setting [10]; 36.2% under setting [11]; 51.5% under setting [12]. The “% Remaining in Solution” value under setting [13] was determined as 136%.
As for `COC1CC(OC2C(C)OC(OC3C(C)=CCC4CC(CC5(C=CC(C)C(C(C)C)O5)O4)OC(=O)C4C=C(C)C(OC)C5OCC(=CC=CC3C)C45O)CC2OC)OC(C)C1O` (stereo not drawn) [A1b], the “% Remaining in Solution” value is, setting by setting: under setting [1], 4.56%; under setting [2], 4.85%; under setting [3], 5.63%; under setting [4], 6.42%; under setting [5], 3.18%; under setting [6], 3.13%. Further, the “% Remaining in Solution” value under setting [7] was 2.42%; the “% Remaining in Solution” value under setting [8] is 1.69%; the “% Remaining in Solution” value under setting [9] was 10.6%; the “% Remaining in Solution” value under setting [10] is 68.1%; the “% Remaining in Solution” value under setting [11] amounted to 111%; the “% Remaining in Solution” value under setting [12] was 145%. In addition, the “% Remaining in Solution” value under setting [13] turned out to be 79.0%.
As to `CCC(C)C1OC2(CC3CC(CC=C(C)C(OC4CC(OC)C(OC5CC(OC)C(O)C(C)O5)C(C)O4)C(C)C=CC=C4COC5C(OC)C(C)=CC(C(=O)O3)C45O)O2)CC(O)C1C` (stereo not drawn) [A2a], the “% Remaining in Solution” value stood at 5.36% under setting [1]; 6.54% under setting [2]; 7.86% under setting [3]; 6.99% under setting [4]; 4.19% under setting [5]; 3.76% under setting [6]. Also, the “% Remaining in Solution” value is reported as 2.12% under setting [7]; 2.72% under setting [8]; 15.2% under setting [9]; 42.1% under setting [10]; 65.7% under setting [11]; 86.7% under setting [12]. Besides, the “% Remaining in Solution” value under setting [13] is listed as 110%.
With `COC1CC(OC2C(C)OC(OC3C(C)=CCC4CC(CC5(CC(O)C(C)C(C(C)C)O5)O4)OC(=O)C4C=C(C)C(OC)C5OCC(=CC=CC3C)C45O)CC2OC)OC(C)C1O` (stereo not drawn) [A2b], the “% Remaining in Solution” value runs as follows: under setting [1], 2.75%; under setting [2], 3.89%; under setting [3], 5.38%; under setting [4], 3.73%; under setting [5], 2.70%; under setting [6], 1.71%. Also, the “% Remaining in Solution” value by setting is: under setting [7], 0.57%; under setting [8], 0.3%; under setting [9], 26.8%; under setting [10], 64.8%; under setting [11], 94.4%; under setting [12], 117%. Also, under setting [13], the “% Remaining in Solution” value is listed as 128%.
Regarding `COC1CC(OC2C(C)OC(OC3C(C)=CCC4CC(CC5(C=CC(C)C(C(C)C)O5)O4)OC(=O)C4C=C(C)C(O)C5OCC(=CC=CC3C)C45O)CC2OC)OC(C)C1O` (stereo not drawn) [B1b], the “% Remaining in Solution” value is listed as 3.73% under setting [1]; 5.03% under setting [2]; 6.32% under setting [3]; 4.55% under setting [4]; 2.59% under setting [5]; 2.13% under setting [6]. The “% Remaining in Solution” value by setting is: under setting [7], 0.90%; under setting [8], 1.53%; under setting [9], 20.4%; under setting [10], 5.15%; under setting [11], 73.8%; under setting [12], 94.2%. Under setting [13], the “% Remaining in Solution” value amounted to 123%.
For `CCC(C)C1OC2(CC3CC(CC=C(C)C(OC4CC(OC)C(OC5CC(OC)C(O)C(C)O5)C(C)O4)C(C)C=CC=C4COC5C(O)C(C)=CC(C(=O)O3)C45O)O2)CC(O)C1C` (stereo not drawn) [B2a], the “% Remaining in Solution” value under setting [1] is on record as 5.10%; the “% Remaining in Solution” value under setting [2] came to 6.09%; the “% Remaining in Solution” value under setting [3] is given as 7.29%; the “% Remaining in Solution” value under setting [4] worked out at 5.37%; the “% Remaining in Solution” value under setting [5] is listed as 3.21%; the “% Remaining in Solution” value under setting [6] worked out at 2.65%. The “% Remaining in Solution” value by setting is: under setting [7], 1.36%; under setting [8], 4.95%; under setting [9], 27.8%; under setting [10], 60.4%; under setting [11], 82.1%; under setting [12], 99.8%. Also, under setting [13], the “% Remaining in Solution” value is 165%.
`COC1CC(OC2C(C)OC(OC3C(C)=CCC4CC(CC5(CC(O)C(C)C(C(C)C)O5)O4)OC(=O)C4C=C(C)C(O)C5OCC(=CC=CC3C)C45O)CC2OC)OC(C)C1O` (stereo not drawn) [B2b]: the “% Remaining in Solution” value reads like this: under setting [1], < 2%; under setting [2], 4.80%; under setting [3], 5.08%; under setting [4], 2.34%; under setting [5], < 3%; under setting [6], 3.89%. The “% Remaining in Solution” value by setting is: under setting [7], 4.35%; under setting [8], 33.3%; under setting [13], 135%.
